Where “and” joins values, the source holds several entries; their conditions need not be identical. Identical values can stand only once.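 Protocol summary: plate cells (96-well), add compound at 5 concentrations, incubate 48 h, interpolate endpoints linearly. GI50 = concentration required for 50% inhibition of growth. The concentration for full growth arrest is given as TGI.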
Assays:
Experiment in all cases: NCI tumour cell line growth inhibition, 48 h
HOP-92 NSCLC = system: HOP-92 NSCLC
LOX IMVI melanoma = system: LOX IMVI melanoma
MDA-MB-435 = system: MDA-MB-435
OVCAR-4 ovarian = system: OVCAR-4 ovarian
OVCAR-5 ovarian = system: OVCAR-5 ovarian
RPMI-8226 leukemia = system: RPMI-8226 leukemia
SF-268 CNS = system: SF-268 CNS
SK-MEL-28 melanoma = system: SK-MEL-28 melanoma
SW-620 colon = system: SW-620 colon
T-47D breast = system: T-47D breast

## CC(C)c1ccc(C(O)(C(=O)O)c2ccc(C(C)C)cc2)cc1
HOP-92 NSCLC
  TGI: > 100 µM
LOX IMVI melanoma
  TGI: > 100 µM
MDA-MB-435
  TGI: > 100 µM
OVCAR-4 ovarian
  TGI: > 100 µM
OVCAR-5 ovarian
  TGI: > 100 µM
RPMI-8226 leukemia
  TGI: 72 µM
SF-268 CNS
  TGI: > 100 µM
SK-MEL-28 melanoma
  TGI: > 100 µM
SW-620 colon
  TGI: > 100 µM
T-47D breast
  TGI: > 100 µM

## N#Cc1ccc(O)c(C2=NCC(c3ccc(-c4ccccc4)cc3)O2)c1 (stereo not drawn)
HOP-92 NSCLC
  GI50: 0.421 µM
  TGI: 22.5 µM
LOX IMVI melanoma
  GI50: 0.0579 µM
  TGI: 10.8 µM
MDA-MB-435
  GI50: 0.665 µM
  TGI: 51.6 µM
OVCAR-4 ovarian
  GI50: 0.32 µM
  TGI: 10.1 µM
OVCAR-5 ovarian
  GI50: 0.941 µM
  TGI: 28.9 µM
RPMI-8226 leukemia
  GI50: 0.416 µM
  TGI: > 100 µM
SF-268 CNS
  GI50: 0.499 µM
  TGI: 16.1 µM
SK-MEL-28 melanoma
  GI50: 1.34 µM
  TGI: 43.8 µM
SW-620 colon
  GI50: 0.387 µM
  TGI: 31.2 µM
T-47D breast
  GI50: 0.565 µM
  TGI: 24.1 µM

## Oc1ccccc1/C=N\Nc1ccccc1
HOP-92 NSCLC
  GI50: 10.7 µM
  TGI: 42.8 µM
LOX IMVI melanoma
  GI50: 0.725 µM
  TGI: 12.5 µM
MDA-MB-435
  GI50: 2.87 µM
  TGI: > 100 µM
OVCAR-4 ovarian
  GI50: 24.8 µM
  TGI: > 100 µM
OVCAR-5 ovarian
  GI50: 8.75 µM
  TGI: 39.2 µM
RPMI-8226 leukemia
  GI50: 3.99 µM
  TGI: 56.8 µM
SF-268 CNS
  GI50: 18.6 µM
  TGI: > 100 µM
SK-MEL-28 melanoma
  GI50: 5.33 µM
  TGI: > 100 µM
SW-620 colon
  GI50: 2.94 µM
  TGI: > 100 µM
T-47D breast
  GI50: 3.43 µM
  TGI: > 100 µM

## CC(C)c1ccc(C(c2c(O)c3ccccc3oc2=O)c2c(O)c3ccccc3oc2=O)cc1
HOP-92 NSCLC
  TGI: 21.2 µM
LOX IMVI melanoma
  TGI: 33 µM
MDA-MB-435
  TGI: 39.3 µM
OVCAR-4 ovarian
  TGI: 94 µM
OVCAR-5 ovarian
  TGI: 37.4 µM
RPMI-8226 leukemia
  TGI: 45.9 µM
SF-268 CNS
  TGI: 66.6 µM
SK-MEL-28 melanoma
  TGI: 40 µM
SW-620 colon
  TGI: 34.2 µM
T-47D breast
  TGI: > 100 µM

## CN(C)C[C@@H]1CCn2cc(c3ccccc32)C2=C(C(=O)NC2=O)c2cn(c3ccccc23)CCO1
HOP-92 NSCLC
  GI50: 0.446 µM
  TGI: 6.31 µM
LOX IMVI melanoma
  GI50: 1.63 µM
  TGI: 3.44 µM
MDA-MB-435
  GI50: 1.46 µM
  TGI: > 10 µM
OVCAR-4 ovarian
  GI50: 2.58 µM
  TGI: > 10 µM
OVCAR-5 ovarian
  GI50: 1.34 µM
  TGI: > 10 µM
RPMI-8226 leukemia
  GI50: 1.13 µM
  TGI: 4.02 µM
SF-268 CNS
  GI50: 4.1 µM
  TGI: > 10 µM
SK-MEL-28 melanoma
  GI50: 1.03 µM
  TGI: 8.13 µM
SW-620 colon
  GI50: 0.467 µM
  TGI: 4.28 µM
T-47D breast
  GI50: 0.828 µM
  TGI: > 10 µM

## CN1CCN(C(=O)[C@@]2(C)CC[C@]3(C)CC[C@]4(C)C(=CC[C@@H]5[C@@]6(C)CC[C@H](OC(=O)c7cccnc7)C(C)(C)[C@@H]6CC[C@]54C)[C@@H]3C2)CC1
HOP-92 NSCLC
  GI50: 1.38 µM
  TGI: 3.2 µM
LOX IMVI melanoma
  GI50: 1.65 µM
  TGI: 3.06 µM
MDA-MB-435
  GI50: 1.7 µM
  TGI: 3.19 µM
OVCAR-4 ovarian
  GI50: 1.78 µM
  TGI: 3.59 µM
OVCAR-5 ovarian
  GI50: 1.69 µM
  TGI: 3.42 µM
RPMI-8226 leukemia
  GI50: 1.87 µM
  TGI: 5.81 µM
SF-268 CNS
  GI50: 1.84 µM
  TGI: 3.85 µM
SK-MEL-28 melanoma
  GI50: 1.79 µM
  TGI: 3.34 µM
SW-620 colon
  GI50: 1.79 µM
  TGI: 3.59 µM
T-47D breast
  GI50: 3.12 µM
  TGI: 17 µM

## C=C1C(=O)O[C@H]2C3OC3(C)CC/C=C(/C(=O)OC)[C@@H](OC(C)=O)[C@H](OC(=O)C3(C)OC3C)[C@H]12 (stereo partly drawn)
HOP-92 NSCLC
  GI50: 0.817 µg/mL
  TGI: 3.13 µM and 1.26 µg/mL
LOX IMVI melanoma
  GI50: 1.36 µM and 1.24 µM
  TGI: 2.74 µM and 2.7 µM
MDA-MB-435
  TGI: 3.95 µM and 4.99 µM
OVCAR-4 ovarian
  GI50: 1.88 µM and 2.18 µg/mL
  TGI: 3.63 µM and 4.47 µg/mL
OVCAR-5 ovarian
  GI50: 2.6 µg/mL
  TGI: 8.82 µM and 4.66 µg/mL
RPMI-8226 leukemia
  GI50: 0.329 µg/mL
  TGI: 1.21 µM and 2.66 µM and 0.941 µg/mL
SF-268 CNS
  GI50: 2.44 µM and 3.42 µM and 4.97 µg/mL
  TGI: 35.7 µM and 14.9 µg/mL
SK-MEL-28 melanoma
  GI50: 1.06 µM and 1.74 µM and 0.336 µg/mL
  TGI: 3.55 µM and 9.53 µM and 0.779 µg/mL
SW-620 colon
  GI50: 422 nM and 350 nM and 0.302 µg/mL
  TGI: 3.47 µM and 1.4 µM and 0.762 µg/mL
T-47D breast
  GI50: 4.6 µM

## CCOC(=O)Nc1cc2c(c(N)n1)N=C(c1ccccc1)CN2
HOP-92 NSCLC
  GI50: < 0.0001 µM
  TGI: 34.8 µM
LOX IMVI melanoma
  GI50: < 0.0001 µM
  TGI: 32.9 µM
MDA-MB-435
  GI50: < 0.0001 µM
  TGI: < 0.0001 µM
OVCAR-4 ovarian
  TGI: > 100 µM
OVCAR-5 ovarian
  TGI: 27.7 µM
RPMI-8226 leukemia
  GI50: < 0.0001 µM
SF-268 CNS
  GI50: < 0.0001 µM
  TGI: 34.8 µM
SK-MEL-28 melanoma
  TGI: 39.9 µM
SW-620 colon
  GI50: < 0.0001 µM
  TGI: > 53 µM
T-47D breast
  TGI: > 90.5 µM

## CCN(CC)CCOc1ccc(NC(=O)C(C(C)C)N2C(=O)/C(=C/c3ccc(Br)cc3)SC2=S)cc1 (stereo not drawn)
HOP-92 NSCLC
  GI50: 2.53 µM
  TGI: 13.5 µM
LOX IMVI melanoma
  GI50: 1.75 µM
  TGI: 3.23 µM
MDA-MB-435
  GI50: 2.1 µM
  TGI: 4.41 µM
OVCAR-4 ovarian
  GI50: 2.25 µM
  TGI: 5.67 µM
OVCAR-5 ovarian
  GI50: 2.89 µM
  TGI: 10.4 µM
RPMI-8226 leukemia
  GI50: 2.35 µM
  TGI: 5.73 µM
SF-268 CNS
  GI50: 2.27 µM
  TGI: 5.85 µM
SK-MEL-28 melanoma
  GI50: 2.07 µM
  TGI: 4.35 µM
SW-620 colon
  GI50: 1.97 µM
  TGI: 4.02 µM
T-47D breast
  GI50: 3.63 µM
  TGI: 19 µM

## Cc1cnc(-c2ccc(-c3ccc(NC(=O)Nc4cccc(C(F)(F)F)c4)cc3F)c3c2C(=O)NC3)[nH]1
HOP-92 NSCLC
  GI50: 0.438 µM
  TGI: 28.6 µM
LOX IMVI melanoma
  GI50: 0.357 µM
  TGI: 17.7 µM
MDA-MB-435
  GI50: 12.6 µM
  TGI: > 47.5 µM
OVCAR-4 ovarian
  GI50: 8.96 µM
  TGI: 23.8 µM
OVCAR-5 ovarian
  GI50: 28.4 µM
  TGI: > 59.8 µM
RPMI-8226 leukemia
  GI50: 10.7 µM
  TGI: 52.3 µM
SF-268 CNS
  GI50: 11.4 µM
  TGI: > 48.1 µM
SK-MEL-28 melanoma
  GI50: 11.5 µM
  TGI: 37.7 µM
SW-620 colon
  GI50: 0.081 µM
  TGI: 17.4 µM
T-47D breast
  GI50: 12.7 µM
  TGI: 33.5 µM

Source: PubChem BioAssay (NCI)
